Data: patent publication US20170027172A1, “USE OF SUBSTITUTE OXO TETRAHYDROQUINOLINE SULFONAMIDES OR SALTS THEREOF FOR RAISING STRESS TOLERANCE OF PLANTS” (BAYER CROPSCIENCE AKTIENGESELLSCHAFT, priority 2014, published 2017)

Tests used:
[1] = system: Triticum aestivum; assay: Drought stress greenhouse test Part B, visual scoring vs stressed control plants; type: in vivo; conditions: spray application 25 g/ha, efficacy range of 2-3 pots
Method: (§1) Seeds of monocotyledonous and dicotyledonous crop plants were sown in sandy loam in plastic pots, covered with soil or sand and cultivated in a greenhouse under good growth conditions. The trial plants were treated at the early leaf stage (BBCH10-BBCH13). To assure uniform water supply before commencement of stress, the potted plants were supplied with water by dam irrigation prior to substance application.
(§2) The inventive compounds formulated in the form of wettable powders (WP) were sprayed onto the green parts of the plants as an aqueous suspension at an equivalent water application rate of 600 l/ha with addition of 0.2% wetting agent (e.g. agrotin). Substance application was followed immediately by stress treatment of the plants.
(§3) Drought stress was induced by gradual drying out under the following conditions:
(§4) “Day”: 14 hours with illumination at 26-30° C. “Night”: 10 hours without illumination at 18-20° C.
(§5) The duration of the respective stress phases was guided mainly by the condition of the stressed control plants. It was ended (by re-irrigating and transfer to a greenhouse with good growth conditions) as soon as irreversible damage was observed on the stressed control plants.
(§6) The end of the stress phase was followed by an about 4-7-day recovery phase, during which the plants were once again kept under good growth conditions in a greenhouse. The duration of the recovery phase was guided mainly by when the trial plants had attained a state which enabled visual scoring of potential effects, and is therefore variable.
(§7) Once this juncture had been reached, the appearance of the plants treated with test substances was recorded in comparison to the stressed control plants by the following categories:
For each substance and dosage, 2-3 pots were treated and evaluated.
(§8) BRSNS=Brassica napus TRZAS=Triticum aestivum

[2] = system: Brassica napus; assay: as above; type: in vivo; parameters: key: 0: no effect; 10: slight positive effect; 20: clear positive effect; 30: strong positive effect; conditions: efficacy range of 2-3 pots
Method: as §1, §2, §3, §4
The duration of the respective stress phases was guided mainly by the condition of the stressed control plants. […]
as §7
For each substance and dosage, 2-3 pots were treated and evaluated. […]

[3] = target: T1, phosphatase ABI1 via the co-regulator RCAR11/PYR1 (Arabidopsis thaliana, UniProt O49686+P49597); assay: In vitro inhibition of the phosphatase ABI1 via the co-regulator RCAR11/PYR1, MUP dephosphorylation; type: biochemical; parameters: dose or concentration left out as unconfirmed; conditions: in a solution of DMSO and water; fluorescence at 460 nm
T1 sequence (O49686 1-191): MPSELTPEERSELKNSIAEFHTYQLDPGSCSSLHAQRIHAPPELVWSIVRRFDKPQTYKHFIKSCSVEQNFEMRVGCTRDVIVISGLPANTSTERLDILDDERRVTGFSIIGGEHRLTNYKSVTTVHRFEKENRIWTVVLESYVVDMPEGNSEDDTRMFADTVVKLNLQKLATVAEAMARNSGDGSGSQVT
T1 sequence (P49597 1-434): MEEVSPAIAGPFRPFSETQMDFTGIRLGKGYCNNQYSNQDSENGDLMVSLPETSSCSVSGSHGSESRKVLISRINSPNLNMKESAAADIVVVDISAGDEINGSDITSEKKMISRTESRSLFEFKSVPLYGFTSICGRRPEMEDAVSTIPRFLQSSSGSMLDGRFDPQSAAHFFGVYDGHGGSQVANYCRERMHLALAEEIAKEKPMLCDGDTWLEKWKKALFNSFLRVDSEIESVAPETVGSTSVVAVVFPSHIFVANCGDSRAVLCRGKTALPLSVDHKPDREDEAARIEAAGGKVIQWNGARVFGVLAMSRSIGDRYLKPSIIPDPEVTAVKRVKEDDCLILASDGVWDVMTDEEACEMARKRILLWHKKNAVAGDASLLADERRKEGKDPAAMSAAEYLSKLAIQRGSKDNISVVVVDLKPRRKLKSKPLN
Method in brief: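 Arabidopsis ABI1 (0.15 μg/well) with RCAR11/PYR1 (0.30 μg/well) in Tris-HCl pH 8, NaCl, MnCl2, DTT, Tween20; MUP substrate, 20 min at 35 °C, fluorescence ex 340/em 460 nm. Compounds tested at 5 mM in DMSO/water, optionally pre-treated with porcine liver esterase; inhibition banded ≥90/70/50/30%.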

[4] = system: Triticum aestivum; assay: Drought stress greenhouse test Part A, visual scoring vs stressed control plants; type: in vivo; parameters: key: 0: no effect; 10: slight positive effect; 20: clear positive effect; 30: strong positive effect; conditions: average score of 3 pots
Method: as §1, §2, §3
(§9) “Day”: 14 hours with illumination at ˜26-30° C. “Night”: 10 hours without illumination at ˜18-20° C.
as §5
as §6, with “and was” for “and is”
as §7
(§10) In order to rule out any influence on the effects observed by any fungicidal or insecticidal action of the test compounds, it was additionally ensured that the tests proceeded without fungal infection or insect infestation.
(§11) In each test, for each crop and dosage, plants in 3 pots were treated and evaluated separately. The values reported in Tables A-1 to A-2 below for the effects obtained are averages from the scores obtained.
as §8

[5] = system: Brassica napus; assay: as above; type: in vivo; parameters: key: 0: no effect; 10: slight positive effect; 20: clear positive effect; 30: strong positive effect; conditions: spray application 250 g/ha, average score of 3 pots
Method: as §1, §2, §3, §9, §5
as §6, with “and was” for “and is”
as §7, §10, §11, §8

[6] = system: Brassica napus; assay: Drought stress greenhouse test Part C, visual scoring vs stressed control plants; type: in vivo; parameters: key: 0: no effect; 10: slight positive effect; 20: clear positive effect; 30: strong positive effect; conditions: spray application 250 g/ha, efficacy range of 3-4 pots
Method: Seeds of monocotyledonous and dicotyledonous crop plants were sown in sandy loam in plastic or wood-fiber pots, covered with soil or sand and cultivated in a greenhouse under good growth conditions. The trial plants were treated at the early leaf stage (BBCH10-BBCH13). To assure uniform water supply before commencement of stress, the potted plants were supplied with water by dam irrigation prior to substance application. The inventive compounds were first formulated as wettable powders (WP) or dissolved in a solvent mixture. The further dilution was effected with water supplemented with 0.2% wetting agent (e.g. agrotin). The finished spray liquor was sprayed onto the green parts of the plant at an equivalent water application rate of 600 l/ha. Substance application was followed immediately by stress treatment of the plants. For this purpose, the wood-fiber pots were transferred in plastic inserts in order to prevent them from subsequently drying out too quickly. Drought stress was induced by gradual drying out under the following conditions: “Day”: 14 hours with illumination at 26-30° C. […] Once this juncture had been reached, the appearance of the plants treated with test substances was recorded in comparison to the stressed control plants by the following categories: [table] For each substance and dosage, 3-4 pots were treated and evaluated. […]

N#CCN1C(=O)CCc2cc(NS(=O)(=O)Cc3ccc(Br)cc3)ccc21 [A16-172]
Effect (TRZAS) [1]: 10-20
Effect (BRSNS) ([2]; spray application 25 g/ha): 20

O=C1CCc2cc(NS(=O)(=O)Cc3ccc(F)cc3)ccc2N1CC1CC1 [A19-158]
ABI1 inhibition [3]: ++++ (inhibition≧90%)
Effect (TRZAS) ([4]; spray application 25 g/ha): 20-30
Effect (TRZAS) ([4]; spray application 250 g/ha): 20-30
Effect (BRSNS) [5]: 20

O=C1CCc2cc(NS(=O)(=O)Cc3cc(F)cc(F)c3)ccc2N1CC1CC1 [A19-164]
ABI1 inhibition [3]: +++ (90%>inhibition≧70%)
Effect (BRSNS) ([2]; spray application 2.5 g/ha): 20

O=C1CCc2cc(NS(=O)(=O)Cc3ccc(C(F)(F)F)cc3)ccc2N1CC1CC1 [A19-178]
ABI1 inhibition [3]: ++++ (inhibition≧90%)
Effect (BRSNS) [5]: 20

COCN1C(=O)CCc2cc(NS(=O)(=O)Cc3ccc(C(F)(F)F)cc3)ccc21 [A49-178]
ABI1 inhibition [3]: ++++ (inhibition≧90%)
Effect (BRSNS) [6]: 20
